For 30 molecules, IC50 results are on record in US12344597B2, “Alkoxy-substituted pyridinyl derivatives as LPA1 receptor antagonists and their use in the treatment of fibrosis” (IDORSIA PHARMACEUTICALS LTD, priority 2018, dated 2025).

Each structure is given as a SMILES string.

The target of this test is human LPA1 receptor (Homo sapiens (Human), UniProt Q92633). The test can be described thus: Beta-arrestin recruitment assay to determine IC50 values for human LPAR1. Format: cell-based. As to conditions: antagonist mode, Tango EDG2-bla U2OS cells, LPA 18:1 500 nM final. The method in brief: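 Tango EDG2-bla U2OS cells: LPA-driven beta-arrestin/TEV protease recruitment releases Gal4-VP16, inducing beta-lactamase reporter read with live-cell substrate. Cells seeded 20 h at 37 °C beforehand. IC50 is antagonist concentration inhibiting 50% of maximal response.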
human LPA1 receptor, sequence (Q92633 whole entry, the tested form may be a part): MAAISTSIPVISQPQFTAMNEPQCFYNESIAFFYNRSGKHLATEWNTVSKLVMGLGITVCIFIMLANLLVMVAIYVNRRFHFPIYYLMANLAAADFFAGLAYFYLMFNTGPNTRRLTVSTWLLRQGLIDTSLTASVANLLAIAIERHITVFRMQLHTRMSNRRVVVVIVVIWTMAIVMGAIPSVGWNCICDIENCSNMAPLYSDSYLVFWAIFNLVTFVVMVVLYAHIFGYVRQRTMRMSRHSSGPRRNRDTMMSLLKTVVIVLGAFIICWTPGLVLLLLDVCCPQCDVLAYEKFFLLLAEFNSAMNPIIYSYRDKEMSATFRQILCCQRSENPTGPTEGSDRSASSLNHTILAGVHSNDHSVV
A general note: Recruitment of arrestin is a read-out of receptor activation apart from second messengers.
For orientation: IC50 means the concentration at which inhibition is half-maximal. A high value points to weaker potency in that assay. `Cc1ccc(NC(=O)C2(c3ccccc3C(C)C)CCN(C(=O)C[C@H](O)C(=O)O)CC2)c(OC(F)F)n1` [Ex 12-37, (S)-4-(4-((2-(difluoromethoxy)-6-methylpyridin-3-yl)carbamoyl)-4-(2-isopropylphenyl)piperidin-1-yl)-2-hydroxy-4-oxobutanoic acid]: the IC50 was 22 nM. In the case of `COc1nc(Cl)ccc1NC(=O)C1(c2ccccc2C(C)C)CN(C(=O)CCC(=O)O)C1` [Ex 12-70, 4-(3-((6-chloro-2-methoxypyridin-3-yl)carbamoyl)-3-(2-isopropylphenyl)azetidin-1-yl)-4-oxobutanoic acid] it was 60 nM. In the case of `Cc1ccc(NC(=O)C2(c3ccccc3C(C)C)CN(C(=O)[C@H](CO)NC(=O)OC(C)(C)C)C2)c(OC(F)F)n1` [Ex 12-39, tert-butyl (S)-(1-(3-((2-(difluoromethoxy)-6-methylpyridin-3-yl)carbamoyl)-3-(2-isopropylphenyl)azetidin-1-yl)-3-hydroxy-1-oxopropan-2-yl)carbamate] it was 481 nM. For the molecule `Cc1ccc(NC(=O)C2(c3ccccc3C(C)C)CN(S(=O)(=O)CCCCC(=O)O)C2)c(OC(F)F)n1` [Ex 13-19, 5-((3-((2-(difluoromethoxy)-6-methylpyridin-3-yl)carbamoyl)-3-(2-isopropylphenyl)azetidin-1-yl)sulfonyl)pentanoic acid], the IC50 was determined as 55 nM. In the case of `Cc1ccc(NC(=O)C2(c3ccccc3C(C)C)CN(C(=O)CS(=O)(=O)O)C2)c(OC(F)F)n1` [Ex 12-3, 2-(3-((2-(difluoromethoxy)-6-methylpyridin-3-yl)carbamoyl)-3-(2-isopropylphenyl)azetidin-1-yl)-2-oxoethane-1-sulfonic acid] it was 16 nM; in that of `COC(=O)c1cccc(CN2CC(C(=O)Nc3ccc(C)nc3OC(F)F)(c3ccccc3C(C)C)C2)n1` [Ex 11-45, methyl 6-((3-((2-(difluoromethoxy)-6-methylpyridin-3-yl)carbamoyl)-3-(2-isopropylphenyl)azetidin-1-yl)methyl)picolinate], 64 nM; in that of `Cc1ccc(NC(=O)C2(c3ccccc3C3CCCC3)CNC2)c(OC(F)F)n1` [Ex 25, 3-(2-cyclopentylphenyl)-N-(2-(difluoromethoxy)-6-methylpyridin-3-yl)azetidine-3-carboxamide], 8.6 nM. The figure for `Cc1ccc(NC(=O)C2(c3ccccc3C(C)C)CN(C(=O)CC3CCNCC3)C2)c(OC(F)F)n1` [Ex 12-138, N-(2-(difluoromethoxy)-6-methylpyridin-3-yl)-3-(2-isopropylphenyl)-1-(2-(piperidin-4-yl)acetyl)azetidine-3-carboxamide] is 43 nM. The figure for `Cc1ccc(NC(=O)C2(c3ccccc3C3CCOCC3)CN(S(N)(=O)=O)C2)c(OC(F)F)n1` [Ex 30, N-(2-(difluoromethoxy)-6-methylpyridin-3-yl)-1-sulfamoyl-3-(2-(tetrahydro-2H-pyran-4-yl)phenyl)azetidine-3-carboxamide] is 33 nM. For the molecule `Cc1ccc(NC(=O)C2(c3ccccc3C(C)C)CN(C(=O)CNC[C@@H](C)O)C2)c(OC(F)F)n1` [Ex 12-55, (R)-N-(2-(difluoromethoxy)-6-methylpyridin-3-yl)-1-((R)-(2-hydroxypropyl)glycyl)-3-(2-isopropylphenyl)azetidine-3-carboxamide], inhibition was half-maximal at 3 nM (IC50). On to `CC(=O)N(CC(=O)N1CC(C(=O)Nc2ccc(C)nc2OC(F)F)(c2ccccc2C(C)C)C1)OCc1ccccc1` [Ex 12-135, 1-(N-acetyl-N-(benzyloxy)glycyl)-N-(2-(difluoromethoxy)-6-methylpyridin-3-yl)-3-(2-isopropylphenyl)azetidine-3-carboxamide], for which the IC50 is 8 nM. The figure for `Cc1ccc(NC(=O)C2(c3ccccc3C(C)C)CN(CCC3(O)CC3)C2)c(OC(F)F)n1` [Ex 11-10, N-(2-(difluoromethoxy)-6-methylpyridin-3-yl)-1-(2-(1-hydroxycyclopropyl)ethyl)-3-(2-isopropylphenyl)azetidine-3-carboxamide] is 12 nM.

For `Cc1ccc(NC(=O)C2(c3ccccc3C(C)C)CCN(S(=O)(=O)CCC(=O)O)CC2)c(OC(F)F)n1` [Ex 13-8, 3-((4-((2-(difluoromethoxy)-6-methylpyridin-3-yl)carbamoyl)-4-(2-isopropylphenyl)piperidin-1-yl)sulfonyl)propanoic acid], it took 7 nM to reach half-maximal inhibition (IC50). Take `CC(C)c1ccccc1C1(C(=O)Nc2cc(F)cnc2OC(F)F)CN(C(=O)CC(C)(C)C(=O)O)C1` [Ex 12-87, 4-(3-((2-(difluoromethoxy)-5-fluoropyridin-3-yl)carbamoyl)-3-(2-isopropylphenyl)azetidin-1-yl)-2,2-dimethyl-4-oxobutanoic acid]: the IC50 came out at 41 nM.

`Cc1cnc(NC(=O)C2(c3ccccc3C(C)C)CN(C3=NC(=O)CO3)C2)c(OC(F)F)c1` [Ex 84, N-(3-(difluoromethoxy)-5-methylpyridin-2-yl)-3-(2-isopropylphenyl)-1-(4-oxo-4,5-dihydrooxazol-2-yl)azetidine-3-carboxamide] registered an IC50 of 310 nM. In the case of `Cc1ccc(NC(=O)C2(c3ccccc3C(C)C)CN(C(=O)CC3(C(=O)O)COC3)C2)c(OC(F)F)n1` [Ex 12-98, 3-(2-(3-((2-(difluoromethoxy)-6-methylpyridin-3-yl)carbamoyl)-3-(2-isopropylphenyl)azetidin-1-yl)-2-oxoethyl)oxetane-3-carboxylic acid] it was 26 nM. In the case of `Cc1ccc(NC(=O)C2(c3ccccc3C(C)C)CCN(C(=O)OCC(=O)O)CC2)c(OC(F)F)n1` [Ex 14-3, 2-((4-((2-(difluoromethoxy)-6-methylpyridin-3-yl)carbamoyl)-4-(2-isopropylphenyl)piperidine-1-carbonyl)oxy)acetic acid] it was 6 nM; in that of `Cc1ccc(NC(=O)C2(c3ccccc3C(C)C)CN(C(=O)CCc3cc(O)no3)C2)c(OC(F)F)n1` [Ex 12-29, N-(2-(difluoromethoxy)-6-methylpyridin-3-yl)-1-(3-(3-hydroxyisoxazol-5-yl)propanoyl)-3-(2-isopropylphenyl)azetidine-3-carboxamide], 32 nM. The figure for `Cc1ccc(NC(=O)C2(c3ccccc3C(C)C)CN(C(=O)C[C@@H](O)C(=O)O)C2)c(OC(F)F)n1` [Ex 12-35, (R)-4-(3-((2-(difluoromethoxy)-6-methylpyridin-3-yl)carbamoyl)-3-(2-isopropylphenyl)azetidin-1-yl)-2-hydroxy-4-oxobutanoic acid] is 41 nM.

For `CCOc1ccc(NC(=O)C2(c3ccccc3C(C)C)CN(S(N)(=O)=O)C2)c(OC)n1` [Ex 15-8, N-(6-ethoxy-2-methoxypyridin-3-yl)-3-(2-isopropylphenyl)-1-sulfamoylazetidine-3-carboxamide], the IC50 turned out to be 4 nM. `COC(=O)c1cnc(N2CC(C(=O)Nc3ccc(C)nc3OC(F)F)(c3ccccc3C(C)C)C2)n1C` [Ex 18-35, methyl 2-(3-((2-(difluoromethoxy)-6-methylpyridin-3-yl)carbamoyl)-3-(2-isopropylphenyl)azetidin-1-yl)-1-methyl-1H-imidazole-5-carboxylate] had a half-inhibitory concentration (IC50) of 30 nM. `COC(=O)C(C)(C)CCN1CC(C(=O)Nc2ncc(Cl)cc2OC(F)F)(c2ccccc2C(C)C)C1` [Ex 78-1, methyl 4-(3-((5-chloro-3-(difluoromethoxy)pyridin-2-yl)carbamoyl)-3-(2-isopropylphenyl)azetidin-1-yl)-2,2-dimethylbutanoate] showed an IC50 of 457 nM. In the case of `Cc1ccc(NC(=O)C2(c3ccccc3C(C)C)CN(C(=O)OCC3(C(=O)O)COC3)C2)c(OC(F)F)n1` [Ex 14-14, 3-(((3-((2-(difluoromethoxy)-6-methylpyridin-3-yl)carbamoyl)-3-(2-isopropylphenyl)azetidine-1-carbonyl)oxy)methyl)oxetane-3-carboxylic acid] it was 30 nM. In the case of `Cc1ccc(NC(=O)C2(c3ccccc3C(C)C)CN(C(=O)CC3(C(=O)O)CCN(C)CC3)C2)c(OC(F)F)n1` [Ex 12-124, 4-(2-(3-((2-(difluoromethoxy)-6-methylpyridin-3-yl)carbamoyl)-3-(2-isopropylphenyl)azetidin-1-yl)-2-oxoethyl)-1-methylpiperidine-4-carboxylic acid] it was 56 nM. The figure for `Cc1ccc(NC(=O)C2(c3ccccc3C(C)C)CN(CCNCC(=O)O)C2)c(OC(F)F)n1` [Ex 11-80, (2-(3-((2-(difluoromethoxy)-6-methylpyridin-3-yl)carbamoyl)-3-(2-isopropylphenyl)azetidin-1-yl)ethyl)glycine] is 297 nM; for `COC(=O)Cn1cc(CN2CC(C(=O)Nc3ccc(C)nc3OC(F)F)(c3ccccc3C(C)C)C2)nn1` [Ex 11-48, methyl 2-(4-((3-((2-(difluoromethoxy)-6-methylpyridin-3-yl)carbamoyl)-3-(2-isopropylphenyl)azetidin-1-yl)methyl)-1H-1,2,3-triazol-1-yl)acetate] it is 304 nM; for `Cc1ccc(NC(=O)C2(c3ccccc3C(C)C)CN(CC3COC3)C2)c(OC(F)F)n1` [Ex 11-5, N-(2-(difluoromethoxy)-6-methylpyridin-3-yl)-3-(2-isopropylphenyl)-1-(oxetan-3-ylmethyl)azetidine-3-carboxamide] it is 29 nM. Regarding `CCOC(=O)COCCN1CC(C(=O)Nc2ccc(C)nc2OC(F)F)(c2ccccc2C(C)C)C1` [Ex 11-74, ethyl 2-(2-(3-((2-(difluoromethoxy)-6-methylpyridin-3-yl)carbamoyl)-3-(2-isopropylphenyl)azetidin-1-yl)ethoxy)acetate], 28 nM corresponded to half-maximal inhibition (IC50).

The molecule `COc1cc(Cl)cnc1NC(=O)C1(c2ccccc2C(C)C)CNC1` [Ex 70, N-(5-chloro-3-methoxypyridin-2-yl)-3-(2-isopropylphenyl)azetidine-3-carboxamide] gave an IC50 of 866 nM. In the case of `CCOC(=O)c1nccc(N2CC(C(=O)Nc3ccc(C)nc3OC(F)F)(c3ccccc3C(C)C)C2)n1` [Ex 18-10, ethyl 4-(3-((2-(difluoromethoxy)-6-methylpyridin-3-yl)carbamoyl)-3-(2-isopropylphenyl)azetidin-1-yl)pyrimidine-2-carboxylate] it was 120 nM.
